Data taken from the supplement of paper PMC10307832.

Key:
Test in all cases: relative viability (nuclei count vs DMSO), 5 days (fraction); higher = more cells survive
Sorafenib + AZD7762 = compound: CNC(=O)c1cc(Oc2ccc(NC(=O)Nc3ccc(Cl)c(C(F)(F)F)c3)cc2)ccn1 [Sorafenib] + NC(=O)Nc1cc(-c2cccc(F)c2)sc1C(=O)N[C@H]1CCCNC1 [AZD7762] (partner 0.2 µM)
How it was run: (§1)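 The day after seeding in 1536-well plates, lung cancer cell lines were treated by pin tool with a single drug, or with a fixed anchor-drug dose together with five library-drug doses (not always all listed) in √10 steps. After 5 days, a combined fix-and-stain solution (final 0.05% Triton X-100, 1% formaldehyde, 1 ug/ml Hoechst) was added. Nuclei counted on 4× images gave relative viability as treated counts over vehicle counts, reported as the median of duplicate plates.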

Sorafenib + Alpelisib = compound: CNC(=O)c1cc(Oc2ccc(NC(=O)Nc3ccc(Cl)c(C(F)(F)F)c3)cc2)ccn1 [Sorafenib] + Cc1nc(NC(=O)N2CCC[C@H]2C(N)=O)sc1-c1ccnc(C(C)(C)C(F)(F)F)c1 [Alpelisib] (partner 2 µM)
How it was run: as §1

Sorafenib + Olaparib = compound: CNC(=O)c1cc(Oc2ccc(NC(=O)Nc3ccc(Cl)c(C(F)(F)F)c3)cc2)ccn1 [Sorafenib] + O=C(c1cc(Cc2n[nH]c(=O)c3ccccc23)ccc1F)N1CCN(C(=O)C2CC2)CC1 [Olaparib] (partner 8 µM)
How it was run: as §1

Sorafenib + Crizotinib = compound: CNC(=O)c1cc(Oc2ccc(NC(=O)Nc3ccc(Cl)c(C(F)(F)F)c3)cc2)ccn1 [Sorafenib] + C[C@@H](Oc1cc(-c2cnn(C3CCNCC3)c2)cnc1N)c1c(Cl)ccc(F)c1Cl [Crizotinib] (partner 1 µM)
How it was run: as §1

Sorafenib + Dasatinib = compound: CNC(=O)c1cc(Oc2ccc(NC(=O)Nc3ccc(Cl)c(C(F)(F)F)c3)cc2)ccn1 [Sorafenib] + Cc1nc(Nc2ncc(C(=O)Nc3c(C)cccc3Cl)s2)cc(N2CCN(CCO)CC2)n1 [Dasatinib] (partner 0.075 µM)
How it was run: as §1

Cell Line	relative viability (Sorafenib + AZD7762; first compound 0.08 µM)	relative viability (Sorafenib + AZD7762; first compound 0.253 µM)	relative viability (Sorafenib + AZD7762; first compound 8 µM)	relative viability (Sorafenib + Alpelisib; first compound 0.08 µM)	relative viability (Sorafenib + Alpelisib; first compound 0.253 µM)	relative viability (Sorafenib + Alpelisib; first compound 2.53 µM)	relative viability (Sorafenib + Alpelisib; first compound 8 µM)	relative viability (Sorafenib + Olaparib; first compound 0.08 µM)	relative viability (Sorafenib + Olaparib; first compound 0.253 µM)	relative viability (Sorafenib + Olaparib; first compound 2.53 µM)	relative viability (Sorafenib + Olaparib; first compound 8 µM)	relative viability (Sorafenib + Crizotinib; first compound 0.08 µM)	relative viability (Sorafenib + Crizotinib; first compound 0.253 µM)	relative viability (Sorafenib + Crizotinib; first compound 2.53 µM)	relative viability (Sorafenib + Crizotinib; first compound 8 µM)	relative viability (Sorafenib + Dasatinib; first compound 0.08 µM)	relative viability (Sorafenib + Dasatinib; first compound 0.253 µM)	relative viability (Sorafenib + Dasatinib; first compound 2.53 µM)	relative viability (Sorafenib + Dasatinib; first compound 8 µM)	relative viability (Sorafenib + AZD7762; first compound 2.53 µM)
NCI-H460	0.586	0.444	0.414	0.594	0.643	0.566	0.103	0.399	0.335	0.345	0.324	1.02	0.777	0.918	0.502	0.554	0.541	0.498	0.416	
NCI-H1915	0.722	0.51	0.669	0.998	0.922	0.909	1.07	0.283	0.226	0.266	0.271	0.892	0.786	0.829	0.907	0.326	0.327	0.402	0.273	0.558
LCLC-103H	0.778	0.652	0.843	1.06	0.991	0.893	1.18	0.796	0.734	0.831	0.832	1.12	1.14	1.28	1.13	0.617	0.424	0.44	0.497	0.769
NCI-H1666	0.865	0.778	0.719	0.849	0.93	0.782	0.537	0.785	0.765	0.721		1.01	0.899		0.487	0.913	0.788	0.829		0.797
LU99A	0.369	0.307	0.155	0.58	0.435	0.468	0.453	0.244	0.234	0.244	0.237	0.541	0.547	0.6	0.543	0.512	0.504	0.608	0.351	0.321
NCI-H1755	0.474	0.383	0.312	0.977	0.93	0.857	0.694	0.912	0.797	0.856	0.748	0.917	0.817	0.874	0.615	0.419	0.436	0.409	0.35	0.504
LOU-NH91	0.804	0.721	0.671	0.896	0.791	0.885	0.589	0.936	0.975	0.96	0.657	0.841	0.751	0.844	0.654	0.692	0.52	0.686	0.361	0.876
HOP-62		0.567	0.207	0.995	0.775	0.765	0.794	0.28	0.389	0.405	0.249	1.01	0.901	0.84	0.57	0.796	0.527	0.584	0.59	0.405
LC-2-ad	0.942	0.86	0.769	1.02	0.863		0.678	0.738	0.768	0.751	0.655	0.496	0.447	0.511	0.421	0.721	0.376	0.427	0.33	0.967
NCI-H727	0.716	0.6	0.502	0.623	0.579	0.702	0.326	0.826	0.666	0.693	0.659	0.979	0.797	0.706	0.357	0.481	0.453	0.399	0.232	
NCI-H647	0.415	0.298	0.35	1.1		0.872		0.568	0.524	0.356	0.0229	1.05	0.972	0.867	0.395	0.245	0.172	0.174	0.135	0.64
NCI-H23	0.193	0.323	0.159	0.74	0.632	0.745	0.498	0.31	0.249	0.343	0.266	0.566	0.427	0.689	0.427	0.804	0.691	0.646	0.709	0.229
NCI-H2170		0.816	0.819	0.792	0.843	0.865	0.754	0.63	0.577	0.556	0.365	1.34	1.08	1.14	1.05	0.771	0.485	0.6	0.518	0.824
NCI-H1437	1.23	1.05	0.539	1.01	0.922	0.905	0.546	0.633	0.585	0.493	0.254	0.941	0.827	0.844	0.496	0.416	0.288	0.421	0.142	1.13
NCI-H1944	0.584	0.453	0.31	0.882	0.909	1.01	0.706	0.391	0.379	0.382	0.35	1.12	1	1.08	0.912	0.213	0.229	0.245	0.206	0.679
NCI-H1993	0.793	0.763	0.397	0.684	0.7	0.666	0.674	1.12	1.2	1.22	0.751	0.988	1	1.08	0.851	0.547	0.302	0.554	0.384	0.913
ABC-1	1.09	0.714	0.68	1.01	0.945	1.11	1.03		0.565	0.693	0.4	1.4	1.07		1.04	0.625	0.493	0.619	0.351	0.876
NCI-H2126	1.01	1.01	0.982	0.788	0.743	0.855		0.935	0.851	0.96	0.913	0.998	0.984	1.09	0.962	0.735	0.533	0.652	0.501	1.07
BEN		0.493	0.611	1.1	0.889	0.906	0.798	1.02	1.1	1.01	0.791	1	0.844	0.862	0.68	0.342	0.255	0.381	0.309	0.741
NCI-H3122	0.905	0.905	0.965	0.799	0.971	0.79	0.409	0.639	0.611	0.6	0.53	0.29	0.317	0.326	0.293	0.92	0.422	0.715	0.311	1.08
EMC-BAC-2	1.12	0.982	1.06		0.73	0.707	0.702	0.473	0.387	0.45	0.461	0.648	0.728	0.762	0.809	0.301	0.268	0.354	0.299	1.15
201T	0.575	0.554		1	1.05	1.13		0.812	0.88	0.877	0.843	1.03	1.01	1.13	1.08	0.584	0.578	0.596	0.458	0.449
NCI-H2085	1.04	0.874	0.604	0.998	0.878	0.882	0.777	0.763	0.851	1.01	0.761	0.938	1.01	0.965	0.717	0.311	0.271	0.26	0.237	1.03
EKVX	0.837	0.638	0.57	1.09	0.886	0.872	0.828	0.91	0.76	0.796	0.682	0.96	0.846	0.917	0.877	0.628	0.449	0.376	0.349	0.627
LCLC-97TM1	0.311	0.139	0.214	0.237	0.247	0.184	0.198	0.413	0.324	0.297	0.253	0.326	0.358	0.364	0.121	0.984	0.841	0.683	0.676	0.229
NCI-H322M	0.65	0.511	0.595	0.815	0.916	0.877	0.84	0.903	0.66	0.678	0.918	0.945	0.848	0.894	0.859	0.261	0.259	0.319	0.302	0.533
